Results as given in the supplement of paper PMC10307832.

Assays:
Test in all cases: relative viability (nuclei count vs DMSO), 5 days (fraction); higher = more cells survive
[1] = system: PC-3 [JPC-3]
Summary of the method: (§1)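 Relative viability is defined as nuclei in treated wells over nuclei in vehicle wells. Duplicate plates were run and medians reported. Lung cancer cell lines in 1536-well plates were dosed by pin tool one day after seeding, with one drug or with a fixed anchor-drug dose plus five library-drug doses (not always all listed) in √10 steps, and nuclei were counted after 5 days.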

[2] = system: NCI-H2342
Summary of the method: as §1

[3] = system: NCI-H647
Summary of the method: as §1

[4] = system: NCI-H1666
Summary of the method: as §1

[5] = system: NCI-H2085
Summary of the method: as §1

[6] = system: NCI-H2170
Summary of the method: as §1

[7] = system: COR-L 105
Summary of the method: as §1

[8] = system: SW 1573
Summary of the method: as §1

[9] = system: LOU-NH91
Summary of the method: as §1

[10] = system: NCI-H650
Summary of the method: as §1

[11] = system: 201T
Summary of the method: as §1

[12] = system: EKVX
Summary of the method: as §1

[13] = system: BEN
Summary of the method: as §1

[14] = system: HCC-827
Summary of the method: as §1

[15] = system: NCI-H1975
Summary of the method: as §1

[16] = system: NCI-H1437
Summary of the method: as §1

[17] = system: NCI-H2087
Summary of the method: as §1

[18] = system: LU99A
Summary of the method: as §1

[19] = system: H3255
Summary of the method: as §1

[20] = system: LCLC-97TM1
Summary of the method: as §1

[21] = system: EPLC-272H
Summary of the method: as §1

`CC(=O)O[C@@]12CO[C@@H]1C[C@H](O)[C@@]1(C)C(=O)[C@H](O)C3=C(C)[C@@H](OC(=O)[C@H](O)[C@@H](NC(=O)OC(C)(C)C)c4ccccc4)C[C@@](O)([C@@H](OC(=O)c4ccccc4)[C@H]21)C3(C)C` [Docetaxel] + Cc1nc(Nc2ncc(C(=O)Nc3c(C)cccc3Cl)s2)cc(N2CCN(CCO)CC2)n1 [Dasatinib] (partner 0.075 µM) gave a relative viability ([1]; first compound 0.0002 µM) of 0.94, a relative viability ([1]; first compound 0.000632 µM) of 0.954 and a relative viability ([1]; first compound 0.002 µM) of 0.762. For the same compound, the relative viability ([1]; first compound 0.006325 µM) was 0.339, the relative viability ([1]; first compound 0.02 µM) was 0.16 and the relative viability ([2]; first compound 0.0002 µM) was 0.309. For the same compound, the relative viability ([2]; first compound 0.000632 µM) was 0.326, the relative viability ([2]; first compound 0.002 µM) was 0.308 and the relative viability ([2]; first compound 0.006325 µM) was 0.285. The relative viability ([2]; first compound 0.02 µM) was 0.265, the relative viability ([3]; first compound 0.0002 µM) was 0.137 and the relative viability ([3]; first compound 0.000632 µM) was 0.132. For the same compound, the relative viability ([3]; first compound 0.002 µM) was 0.0799, the relative viability ([3]; first compound 0.006325 µM) was 0.0795 and the relative viability ([3]; first compound 0.02 µM) was 0.0407. It also gave a relative viability ([4]; first compound 0.0002 µM) of 0.684, a relative viability ([4]; first compound 0.000632 µM) of 0.594 and a relative viability ([4]; first compound 0.002 µM) of 0.465. For the same compound, the relative viability ([4]; first compound 0.006325 µM) was 0.414, the relative viability ([4]; first compound 0.02 µM) was 0.284 and the relative viability ([5]; first compound 0.0002 µM) was 0.229. It also gave a relative viability ([5]; first compound 0.000632 µM) of 0.268, a relative viability ([5]; first compound 0.002 µM) of 0.217 and a relative viability ([5]; first compound 0.006325 µM) of 0.24. The relative viability ([5]; first compound 0.02 µM) was 0.176, the relative viability ([6]; first compound 0.0002 µM) was 0.6 and the relative viability ([6]; first compound 0.000632 µM) was 0.574. It also gave a relative viability ([6]; first compound 0.002 µM) of 0.428, a relative viability ([6]; first compound 0.006325 µM) of 0.141 and a relative viability ([6]; first compound 0.02 µM) of 0.14. The relative viability ([7]; first compound 0.0002 µM) was 0.322, the relative viability ([7]; first compound 0.000632 µM) was 0.288 and the relative viability ([7]; first compound 0.002 µM) was 0.224. The relative viability ([7]; first compound 0.006325 µM) was 0.249, the relative viability ([7]; first compound 0.02 µM) was 0.202 and the relative viability ([8]; first compound 0.0002 µM) was 0.307. It also gave a relative viability ([8]; first compound 0.000632 µM) of 0.19, a relative viability ([8]; first compound 0.002 µM) of 0.122 and a relative viability ([8]; first compound 0.02 µM) of 0.0658. It also gave a relative viability ([9]; first compound 0.0002 µM) of 0.553, a relative viability ([9]; first compound 0.000632 µM) of 0.533 and a relative viability ([9]; first compound 0.002 µM) of 0.345. It also gave a relative viability ([9]; first compound 0.006325 µM) of 0.304, a relative viability ([9]; first compound 0.02 µM) of 0.247 and a relative viability ([10]; first compound 0.0002 µM) of 0.396. The relative viability ([10]; first compound 0.000632 µM) was 0.361, the relative viability ([10]; first compound 0.002 µM) was 0.253 and the relative viability ([10]; first compound 0.006325 µM) was 0.228. For the same compound, the relative viability ([10]; first compound 0.02 µM) was 0.198, the relative viability ([11]; first compound 0.0002 µM) was 0.562 and the relative viability ([11]; first compound 0.000632 µM) was 0.548. For the same compound, the relative viability ([11]; first compound 0.002 µM) was 0.52, the relative viability ([11]; first compound 0.006325 µM) was 0.46 and the relative viability ([11]; first compound 0.02 µM) was 0.282. The relative viability ([12]; first compound 0.0002 µM) was 0.472, the relative viability ([12]; first compound 0.000632 µM) was 0.45 and the relative viability ([12]; first compound 0.002 µM) was 0.296. For the same compound, the relative viability ([12]; first compound 0.006325 µM) was 0.264, the relative viability ([12]; first compound 0.02 µM) was 0.195 and the relative viability ([13]; first compound 0.0002 µM) was 0.281. It also gave a relative viability ([13]; first compound 0.000632 µM) of 0.355, a relative viability ([13]; first compound 0.002 µM) of 0.328 and a relative viability ([13]; first compound 0.006325 µM) of 0.183. It also gave a relative viability ([13]; first compound 0.02 µM) of 0.154, a relative viability ([14]; first compound 0.0002 µM) of 0.237 and a relative viability ([14]; first compound 0.000632 µM) of 0.297. For the same compound, the relative viability ([14]; first compound 0.002 µM) was 0.289, the relative viability ([14]; first compound 0.006325 µM) was 0.22 and the relative viability ([14]; first compound 0.02 µM) was 0.155. For the same compound, the relative viability ([15]; first compound 0.0002 µM) was 0.377, the relative viability ([15]; first compound 0.000632 µM) was 0.284 and the relative viability ([15]; first compound 0.002 µM) was 0.152. It also gave a relative viability ([15]; first compound 0.006325 µM) of 0.127, a relative viability ([15]; first compound 0.02 µM) of 0.107 and a relative viability ([16]; first compound 0.0002 µM) of 0.339. It also gave a relative viability ([16]; first compound 0.000632 µM) of 0.259, a relative viability ([16]; first compound 0.002 µM) of 0.268 and a relative viability ([16]; first compound 0.006325 µM) of 0.174. The relative viability ([16]; first compound 0.02 µM) was 0.122, the relative viability ([17]; first compound 0.0002 µM) was 0.809 and the relative viability ([17]; first compound 0.000632 µM) was 0.371. For the same compound, the relative viability ([17]; first compound 0.002 µM) was 0.171, the relative viability ([17]; first compound 0.006325 µM) was 0.139 and the relative viability ([17]; first compound 0.02 µM) was 0.102. It also gave a relative viability ([18]; first compound 0.0002 µM) of 0.588, a relative viability ([18]; first compound 0.000632 µM) of 0.372 and a relative viability ([18]; first compound 0.002 µM) of 0.285. For the same compound, the relative viability ([18]; first compound 0.006325 µM) was 0.277, the relative viability ([19]; first compound 0.0002 µM) was 0.378 and the relative viability ([19]; first compound 0.000632 µM) was 0.439. The relative viability ([19]; first compound 0.002 µM) was 0.276, the relative viability ([19]; first compound 0.006325 µM) was 0.309 and the relative viability ([19]; first compound 0.02 µM) was 0.252. The relative viability ([20]; first compound 0.0002 µM) was 0.843, the relative viability ([20]; first compound 0.000632 µM) was 0.762 and the relative viability ([20]; first compound 0.002 µM) was 0.675. It also gave a relative viability ([20]; first compound 0.006325 µM) of 0.273, a relative viability ([20]; first compound 0.02 µM) of 0.144 and a relative viability ([21]; first compound 0.0002 µM) of 0.358. The relative viability ([21]; first compound 0.000632 µM) was 0.235, the relative viability ([21]; first compound 0.002 µM) was 0.142 and the relative viability ([21]; first compound 0.006325 µM) was 0.107. It also gave a relative viability ([21]; first compound 0.02 µM) of 0.0615.
